Laboratory results: ChEMBL document CHEMBL5614402, “Discovery of novel pyrazolo[1,5-a]pyrimidine derivatives as potent reversal agents against ABCB1-mediated multidrug resistance” (Eur J Med Chem, 2024)
Active and inactive are the calls of the source. The calls are words filed in the database; no cut-off is given here.

Assays:
[1] = tested on: MCF7; experiment: Antiproliferative activity against human MCF7 cells assessed as survival rate at 5 uM incubated for 72 hrs by MTT assay; format: functional; conditions: read-out: Survival
[2] = tested on: NCI/ADR-RES; experiment: Effect on ABCB1 expression in human MCF7ADR cells upto 15 uM by Western blotting analysis; format: functional, cell-based
[3] = tested on: NCI/ADR-RES; experiment: Induction of paclitaxel mediated DNA damage in human MCF7ADR cells at 10 uM in presence of paclitaxel by comet assay; format: functional, cell-based
[4] = tested on: MCF7; experiment: Reversal of paclitaxel resistance in human MCF7 cells; format: functional, cell-based
[5] = tested on: NCI/ADR-RES; experiment: Antiproliferative activity against human MCF7ADR cells assessed as survival rate at 5 uM incubated for 72 hrs by MTT assay; format: functional; conditions: read-out: Survival
[6] = Cytotoxicity against HEK293T cells assessed as cell viability at 10 uM; format: toxicity, cell-based, HEK-293T; conditions: human, read-out: Activity
[7] = tested on: NCI/ADR-RES; experiment: Reversal of paclitaxel resistance in human MCF7ADR cells assessed as reversal fold by measuring ratio of paclitaxel IC50 to paclitaxel IC50 in presence of test compound at 5 uM incubated for 72 hrs by MTT assay; format: functional
[8] = molecular target: T1, ATP-dependent translocase ABCB1 (Homo sapiens, UniProt P08183); experiment: Binding affinity to ABCB1 (unknown origin) assessed as reduction in protein hydrolysis at 10 to 100 uM incubated for 1 hr followed by alkaline protease addition and measured after 15 mins by Western blotting analysis; conditions: 1.25 h, dose 10-100 µM, time 75 min
[9] = tested on: NCI/ADR-RES; experiment: Induction of paclitaxel mediated apoptosis in human MCF7ADR cells assessed as early apoptotic cells at 10 uM in presence of paclitaxel by Annexin V-FITC and propidium iodide staining based flow cytometry analysis (reference value: 3.87%); format: functional
[10] = tested on: NCI/ADR-RES; experiment: Induction of apoptosis in human MCF7ADR cells assessed as viable cells at 10 uM by Annexin V-FITC and propidium iodide staining based flow cytometry analysis (reference value: 85.75%); format: functional; conditions: read-out: Activity
[11] = tested on: MCF7; experiment: Reversal of paclitaxel resistance in human MCF7 cells assessed as reduction in paclitaxel IC50 at 5 uM pretreated with compound for 4 hrs followed by paclitaxel addition and measured after 72 hrs by MTT assay (reference value: 2.60 +/- 0.36 nM); format: functional, cell-based
[12] = tested on: NCI/ADR-RES; experiment: Induction of paclitaxel mediated apoptosis in human MCF7ADR cells assessed as necrotic cells at 10 uM in presence of paclitaxel by Annexin V-FITC and propidium iodide staining based flow cytometry analysis (reference value: 3.14%); format: functional
[13] = molecular target: T1, ATP-dependent translocase ABCB1; experiment: Binding affinity to ABCB1 (unknown origin) assessed as change in thermal stability at 200 uM by CETSA
[14] = tested on: NCI/ADR-RES; experiment: Inhibition of cell proliferation in human MCF7ADR cells assessed as reduction in cellular proliferation cells at 10 uM in presence of paclitaxel by EdU staining based assay; format: functional
[15] = tested on: NCI/ADR-RES; experiment: Induction of DNA damage in human MCF7ADR cells at 10 nM by comet assay; format: functional, cell-based
[16] = tested on: NCI/ADR-RES; experiment: Reversal of paclitaxel resistance in human MCF7ADR cells assessed as reduction in paclitaxel IC50 at 10 uM pretreated with compound for 4 hrs followed by paclitaxel addition and measured after 72 hrs by MTT assay (reference value: 6.68 +/- 0.35 microM); format: functional, cell-based
[17] = tested on: NCI/ADR-RES; experiment: Induction of apoptosis in human MCF7ADR cells assessed as early apoptotic cells at 10 uM by Annexin V-FITC and propidium iodide staining based flow cytometry analysis (reference value: 3.87%); format: functional
[18] = Cytotoxicity against HUVECs assessed as cell viability at 10 uM; format: toxicity, cell-based; conditions: human, HUVEC cells, read-out: Activity
[19] = tested on: NCI/ADR-RES; experiment: Reversal of paclitaxel resistance in human MCF7ADR cells at 10 uM; format: functional, cell-based
[20] = molecular target: T2, Tubulin (Homo sapiens) (UniProt P68371+Q9H4B7+P0DPH7+P68366+Q13509+Q71U36+P04350+Q3ZCM7+P07437+P68363+Q9BQE3+Q6PEY2+Q13885+Q9BVA1+Q9BUF5); experiment: Induction of paclitaxel mediated tubulin […] in human MCF7ADR cells assessed as appearance of cellular multinucleation at 10 uM incubated for 72 hrs in presence of paclitaxel; format: cell-based; conditions: filed as activator
[21] = tested on: MCF7; experiment: Antiproliferative activity against human MCF7 cells incubated for 72 hrs by MTT assay; format: functional, cell-based; conditions: MCF7, 72 h
[22] = tested on: NCI/ADR-RES; experiment: Reversal of paclitaxel resistance in human MCF7ADR cells assessed as reduction in paclitaxel IC50 at 5 uM pretreated with compound for 4 hrs followed by paclitaxel addition and measured after 72 hrs by MTT assay (reference value: 6.68 +/- 0.35 microM); format: functional, cell-based
[23] = Cytotoxicity against human GES1 cells assessed as cell viability at 10 uM; format: toxicity, cell-based; conditions: read-out: Activity
[24] = tested on: MCF7; experiment: Reversal of paclitaxel resistance in human MCF7 cells assessed as reversal fold by measuring ratio of paclitaxel IC50 to paclitaxel IC50 in presence of test compound at 10 uM incubated for 72 hrs by MTT assay; format: functional
[25] = tested on: NCI/ADR-RES; experiment: Inhibition of colony formation in human MCF7ADR cells at 10 uM incubated for 7 days in presence of paclitaxel by crystal violet staining based assay; format: functional, cell-based; conditions: time 7.0 day
[26] = tested on: NCI/ADR-RES; experiment: Induction of paclitaxel mediated apoptosis in human MCF7ADR cells assessed as reduction in nuclei size at 10 uM in presence of paclitaxel by DAPI staining based assay; format: functional, cell-based
[27] = tested on: NCI/ADR-RES; experiment: Induction of paclitaxel mediated apoptosis in human MCF7ADR cells assessed as viable cells at 10 uM in presence of paclitaxel by Annexin V-FITC and propidium iodide staining based flow cytometry analysis (reference value: 85.75%); format: functional; conditions: read-out: Activity
[28] = tested on: NCI/ADR-RES; experiment: Induction of apoptosis in human MCF7ADR cells assessed as necrotic cells at 10 uM by Annexin V-FITC and propidium iodide staining based flow cytometry analysis (reference value: 3.14%); format: functional
[29] = tested on: MCF7; experiment: Reversal of paclitaxel resistance in human MCF7 cells assessed as reduction in paclitaxel IC50 at 10 uM pretreated with compound for 4 hrs followed by paclitaxel addition and measured after 72 hrs by MTT assay (reference value: 2.60 +/- 0.36 nM); format: functional, cell-based
[30] = tested on: NCI/ADR-RES; experiment: Effect on subcellular localization of ABCB1 in human MCF7ADR cells at 10 uM incubated for 48 hrs by DAPI staining based assay; format: functional, cell-based
[31] = tested on: NCI/ADR-RES; experiment: Induction of DNA damage in human MCF7ADR cells at 10 uM by comet assay; format: functional, cell-based
[32] = molecular target: T2, Tubulin (Homo sapiens); experiment: Induction of paclitaxel mediated tubulin […] in human MCF7ADR cells assessed as appearance of filamentous microtubules at 10 uM incubated for 72 hrs in presence of paclitaxel; format: cell-based; conditions: filed as activator
[33] = tested on: NCI/ADR-RES; experiment: Synergistic antiproliferative activity against human MCF7ADR cells assessed as combination index at 10 uM in presence of PTX; format: functional
[34] = tested on: NCI/ADR-RES; experiment: Reversal of paclitaxel resistance in human MCF7ADR cells assessed as reversal fold by measuring ratio of paclitaxel IC50 to paclitaxel IC50 in presence of test compound at 10 uM incubated for 72 hrs by MTT assay; format: functional
[35] = tested on: NCI/ADR-RES; experiment: Induction of cell cycle arrest in human MCF7ADR cells assessed as accumulation of cells at G2/M phase at 10 uM in presence of paclitaxel by propidium iodide staining based flow cytometry analysis; format: functional
[36] = tested on: NCI/ADR-RES; experiment: Induction of apoptosis in human MCF7ADR cells assessed as late apoptotic cells at 10 uM by Annexin V-FITC and propidium iodide staining based flow cytometry analysis (reference value: 7.24%); format: functional
[37] = molecular target: T2, Tubulin (Homo sapiens); experiment: Inhibition of tubulin depolymerization in human MCF7ADR cells assessed as change in microtubule morphology at 10 uM incubated for 72 hrs; format: cell-based
[38] = tested on: MCF7; experiment: Reversal of paclitaxel resistance in human MCF7 cells assessed as reversal fold by measuring ratio of paclitaxel IC50 to paclitaxel IC50 in presence of test compound at 5 uM incubated for 72 hrs by MTT assay; format: functional
[39] = tested on: NCI/ADR-RES; experiment: Induction of paclitaxel mediated apoptosis in human MCF7ADR cells assessed as late apoptotic cells at 10 uM in presence of paclitaxel by Annexin V-FITC and propidium iodide staining based flow cytometry analysis (reference value: 7.24%); format: functional
[40] = tested on: NCI/ADR-RES; experiment: Antiproliferative activity against human MCF7ADR cells incubated for 72 hrs by MTT assay; format: functional, cell-based
[41] = tested on: NCI/ADR-RES; experiment: Induction of paclitaxel mediated apoptosis in human MCF7ADR cells assessed as nuclear fragmentation at 10 uM in presence of paclitaxel by DAPI staining based assay; format: functional, cell-based

T1 sequence (P08183 whole entry): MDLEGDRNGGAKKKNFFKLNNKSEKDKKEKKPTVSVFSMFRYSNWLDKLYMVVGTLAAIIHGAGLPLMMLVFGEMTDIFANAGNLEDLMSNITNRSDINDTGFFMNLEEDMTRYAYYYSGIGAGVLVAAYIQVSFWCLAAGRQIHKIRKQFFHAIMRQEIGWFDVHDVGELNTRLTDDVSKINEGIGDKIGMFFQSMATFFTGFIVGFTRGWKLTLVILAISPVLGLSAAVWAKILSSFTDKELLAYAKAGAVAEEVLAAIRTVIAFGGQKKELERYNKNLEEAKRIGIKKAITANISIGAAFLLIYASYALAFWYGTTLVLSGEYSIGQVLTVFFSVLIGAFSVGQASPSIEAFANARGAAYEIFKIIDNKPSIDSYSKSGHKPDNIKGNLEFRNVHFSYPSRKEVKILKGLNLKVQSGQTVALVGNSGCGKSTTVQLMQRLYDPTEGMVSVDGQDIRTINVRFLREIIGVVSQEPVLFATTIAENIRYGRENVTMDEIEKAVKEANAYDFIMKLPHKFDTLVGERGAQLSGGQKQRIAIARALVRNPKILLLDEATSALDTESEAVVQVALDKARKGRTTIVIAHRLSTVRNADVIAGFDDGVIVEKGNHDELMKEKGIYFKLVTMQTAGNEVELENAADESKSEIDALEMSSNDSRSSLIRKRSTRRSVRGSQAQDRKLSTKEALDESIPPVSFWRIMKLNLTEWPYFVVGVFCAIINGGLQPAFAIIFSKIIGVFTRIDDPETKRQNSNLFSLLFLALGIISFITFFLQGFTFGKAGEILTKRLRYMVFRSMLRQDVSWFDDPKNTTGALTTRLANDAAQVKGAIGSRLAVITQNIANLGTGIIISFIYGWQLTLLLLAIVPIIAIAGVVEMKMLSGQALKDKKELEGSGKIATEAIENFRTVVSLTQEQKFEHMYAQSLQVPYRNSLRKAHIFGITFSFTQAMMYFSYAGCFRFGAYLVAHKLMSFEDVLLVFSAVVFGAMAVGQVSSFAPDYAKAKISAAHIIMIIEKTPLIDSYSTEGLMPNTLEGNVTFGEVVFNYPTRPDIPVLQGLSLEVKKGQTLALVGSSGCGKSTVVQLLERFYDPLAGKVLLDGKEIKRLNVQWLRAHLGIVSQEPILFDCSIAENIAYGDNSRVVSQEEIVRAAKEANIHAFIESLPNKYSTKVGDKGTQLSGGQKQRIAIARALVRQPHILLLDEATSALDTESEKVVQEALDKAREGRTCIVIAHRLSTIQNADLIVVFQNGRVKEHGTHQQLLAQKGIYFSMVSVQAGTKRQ

Question: Which results are given for COc1cc(-c2c(C)nc3cc(-c4cccs4)nn3c2-c2cc(OC)c(OC)c(OC)c2)cc(OC)c1OC?
Answer: viability at 5 µM [1]: 97.7%; Activity [2]: inactive; Activity [3]: Active; Activity [4]: inactive; viability at 5 µM [5]: 95%; viability at 10 µM [6]: > 80%; Ratio [7]: 247.4; Activity [8]: Active; Activity [9]: 13.87%; viability at 10 µM [10]: 84.4%; IC50 [11]: 2.96 nM; Activity [12]: 4.28%; Activity [13]: Active; inhibition [14]: Active; Activity [15]: Active; IC50 [16]: 10.1 nM; Activity [17]: 6.17%; viability at 10 µM [18]: > 80%; Activity [19]: Active; Activity [20]: Active; IC50 [21]: > 20000 nM; IC50 [22]: 27 nM; viability at 10 µM [23]: > 80%; Ratio [24]: 0.98; inhibition [25]: Active; Activity [26]: Active; viability at 10 µM [27]: 52.3%; Activity [28]: 1.44%; IC50 [29]: 2.65 nM; Activity [30]: inactive; Activity [31]: Active; Activity [32]: Active; CI [33]: 0.09; Ratio [34]: 663.44; Activity [35]: Active; Activity [36]: 7.98%; inhibition [37]: inactive; Ratio [38]: 0.88; Activity [39]: 29.54%; IC50 [40]: > 20000 nM; Activity [41]: Active
